Measured values as given in patent publication US20250360123A1, “METHODS AND COMPOSITIONS FOR TREATING INHERITED RETINAL DEGENERATION” (ONL Therapeutics, Inc., priority 2024, published 2025).

Tests used:
Assay type in all cases: in vivo, mouse
Fas-Lpr/P23H mice [1] = assay: Retinal histology and IHC staining (DAPI, m-opsin, rhodopsin); conditions: HCQ versus untreated
Protocol: (§1) This study was conducted in the Lpr/P23H mouse line, a Fas-deficient mouse line that is also a model of retinitis pigmentosa. Hydroxychloroquine (HCQ) was given in the drinking water at 1.2 mg/ml starting at 21 days post-natal (P21) to reduce autophagy flux (FIG. 1). Photoreceptor death was assessed by Terminal deoxynucleotidyl transferase (TdT) dUTP Nick-End Labeling (TUNEL) cell counts. Retinal structure was examined by histology and optical coherence tomography (OCT) analysis. Electroretinogram (ERG) recording and immunohistochemistry (IHC) staining of rhodopsin and m-opsin were performed to evaluate the retinal function. Transcript levels of inflammatory cytokines, CCL-2 and CCL-3, were analyzed by rt-PCR.

CCL-3 = assay: Transcript level of inflammatory cytokine CCL-3 in retina by rt-PCR; conditions: Fas-Lpr/P23H mice, HCQ 1.2 mg/ml in drinking water from P21, versus untreated mice
Protocol: as §1

Fas-Lpr/P23H mice [2] = assay: TUNEL cell counts for photoreceptor death in retina; conditions: HCQ 1.2 mg/ml in drinking water from P21, versus untreated mice, FIG. 2B
Protocol: as §1

Fas-Lpr/P23H mice [3] = assay: Electroretinogram (ERG) recording, Fas-deficient retinitis pigmentosa model; conditions: 3-month and 4-month old Fas-LPR/P23H mice; HCQ versus untreated
Protocol: as §1
Photoreceptor function was assessed using electroretinograms (ERGs).

Fas-Lpr/P23H mice [4] = assay: ONL thickness by optical coherence tomography (OCT), Fas-deficient retinitis pigmentosa model; conditions: 3- and 4-months old, OCT at 250 and 500 μm from the optic nerve, inferior and superior retina, HCQ in drinking water versus untreated
Protocol: as §1
A proxy for retinal cell death is […] (ONL) thickness, with thicker ONLs correlating to less cell death.

CCL-2 = assay: Transcript level of inflammatory cytokine CCL-2 in retina by rt-PCR; conditions: Fas-Lpr/P23H mice, HCQ 1.2 mg/ml in drinking water from P21, versus untreated mice
Protocol: as §1

CCN(CCO)CCCC(C)Nc1ccnc2cc(Cl)ccc12 (centres unmarked) [HCQ, Hydroxychloroquine]
photoreceptor survival (histological images) (Fas-Lpr/P23H mice [1]; 3-month and 4-month old Fas-LPR/P23H mice, FIG. 6): greater photoreceptor survival | survival of cell bodies (DAPI), cones (m-opsin) and rods (rhodopsin), IHC images (Fas-Lpr/P23H mice [1]; 3-month and 4-month old Fas-Lpr/P23H mice, FIG. 7A, 7B): greater survival of cell bodies, cones, and rods | production of inflammatory cytokine CCL-3 (CCL-3): lowered production | TUNEL-positive cell counts in the retina (Fas-Lpr/P23H mice [2]): statistically significantly fewer | scotopic ERG a-wave amplitude (Fas-Lpr/P23H mice [3]): significantly greater amplitude | scotopic ERG b-wave amplitude (Fas-Lpr/P23H mice [3]): significantly greater amplitude | optic nerve layer (ONL) thickness (Fas-Lpr/P23H mice [4]): significantly greater ONL thickness | production of inflammatory cytokine CCL-2 (CCL-2): lowered production
